# Experimental data as given in patent publication US5262433A, “Tetrazoleacetic acid derivatives and method of aldose reductase inhibition therewith” (Wakamoto Pharmaceutical Co., Ltd., priority 1991, dated 1993).
# Legend:
# [1] = tested on: sorbitol accumulation in sciatic nerve; assay: Inhibitory activity test against sorbitol accumulation in sciatic nerve of streptozotocin diabetic rats; assay type: in vivo, rat (Sprague-Dawley); details: for Rate of Inhibition of Sorbitol Accumulation in Sciatic Nerve (10 mg/kg): comparative compounds III (Table 4); for Rate of Inhibition of Sorbitol Accumulation, Sciatic nerve, 10 mg/kg: 10 mg/kg oral once a day for 5 days; for Rate of Inhibition of Sorbitol Accumulation, Sciatic nerve, 100 mg/kg: 100 mg/kg oral once a day for 5 days
# Description: (§1) Groups of 6 to 8-week-old Sprague-Dawley male rats (4 animals per group) were fasted for 18 hours and streptozotocin was injected through the tail vein in a dose of 60 mg/kg, to obtain diabetic rats.
# (§2) Immediately after the administration of streptozotocin, each compound to be tested was orally administered to these rats in the form of a suspension at a dose of 5 mg/kg, 10 mg/kg and 100 mg/kg (each was suspended in a 0.5% sodium carboxymethyl cellulose solution) once a day (at 9 a.m.) for 5 days.
# (§3) During the test, the rats took diet and drank water freely. Four hours after the final administration of the drug in the 5th day's morning (at 9 a.m.), the rats were sacrificed and then the sciatic nerve and lens were removed to determine the amounts of sorbitol accumulated therein.
# (§4) The results are expressed in the percentage obtained when the value obtained on the control to which no drug was administered is defined 100.
# [2] = tested on: sorbitol accumulation in lens; assay: Inhibitory activity test against sorbitol accumulation in lens of streptozotocin diabetic rats; assay type: in vivo, rat (Sprague-Dawley); details: 100 mg/kg oral once a day for 5 days, STZ diabetic rats
# Description: as §1, §2, §3, §4
# aldose reductase = molecular target: T1, aldose reductase (Rattus norvegicus, UniProt P07943); assay: Aldose Reductase Inhibition Test; assay type: biochemical, rat (male SD rats, crystalline lenses); details: rat lens enzyme; DL-glyceraldehyde 10 mM, pH 6.2, 30° C., 5 minutes
# T1 construct: crystalline lenses were immediately removed and stored at -80° C; from tissue; host or cells: crystalline lenses of six-week-old male SD rats
# Description: Six-week-old male SD rats were anesthetized with ether and killed. The their crystalline lenses were immediately removed and stored at -80° C. The lenses were homogenized in 3 volumes of 135 mM sodium potassium phosphate buffer (pH 7.0) and centrifuged at 30,000 rpm for 30 minutes. The resulting supernatant was dialyzed overnight against 0.05M sodium chloride solution to obtain an aldose reductase solution. All operations were conducted at 4° C. and the enzyme solution was stored at -80° C.
# The activity of aldose reductase was determined according to a partially modified method of J. H. Kinoshita et al. (J. Biol. Chem., 1965, 240, p. 877). More specifically, 0.1 ml of DL-glyceraldehyde (final concentration: 10 mM) was added to 0.9 ml of 100 mM sodium potassium phosphate buffer (pH 6.2) which contained lithium sulfate (final concentrationL 400 mM), reduced nicotinamide adenine dinucleotide phosphate (final concentration: 0.15 mM), the enzyme solution, and the compound to be evaluated (final concentration: 10^-5 M, 10^-6 M, 10^-7 M or 10^-8 M), and then the reaction was conducted at 30° C. for 5 minutes. During the reaction, the change in the absorbance at 340 nm with time was monitored.
# The maximum reducing rate of the absorbance (U) during the reaction was determined. By subtracting, from this value, the maximum reducing rate (U0) at 340 nm of the reaction solution before the addition of the substrate (DL-glyceraldehyde), the reaction rate (V=U-U0) was calculated as a true reaction rate in the presence of the compound to be tested.
# The same procedure was repeated except for the absence of the compound to be tested. A true reaction rate (V0) in case the enzyme was not inhibited was calculated (V0 =U^1 -U0^1). The aldose reductase inhibitory activity of the test compounds was determined according to the following formula:
# Rate of Inhibition (%)=(V0 -V)/V0 ×100
# The concentration of inhibitor giving 50% inhibition of enzyme activity (IC50) was estimated from the least-square regression line of the log dose-response curve.
# [3] = sciatic nerve, STZ diabetic rats
IC50 (aldose reductase) [nM],Molecule,Rate of Inhibition of Sorbitol Accumulation in Sciatic Nerve (10 mg/kg) ([1]; sciatic nerve) [%],"Rate of Inhibition of Sorbitol Accumulation, Sciatic nerve, 5 mg/kg ([1]; po, 5 mg/kg, 120 h) [%]","Rate of Inhibition of Sorbitol Accumulation, Sciatic nerve, 10 mg/kg [1, 3] [%]","Rate of Inhibition of Sorbitol Accumulation, Sciatic nerve, 100 mg/kg [1, 3] [%]","Rate of Inhibition of Sorbitol Accumulation, lens, 100 mg/kg [2] [%]",sorbitol accumulation rate [1] [%],"Rate of Inhibition of Sorbitol Accumulation, Sciatic nerve, 5 mg/kg ([1]; sciatic nerve, 5 mg/kg oral once a day for 5 days, STZ diabetic rats) [%]"
–,[5-(2-methylthio-3-thienyl)tetrazol-1-yl]acetic acid 2-hydroxyethyl ester [Example 2],63,–,–,–,–,–,–
–,"O=C(Cn1nnnc1-c1ccsc1)OCCCO [Example 15, [5-(3-thienyl)tetrazol-1-yl]acetic acid 3-hydroxypropyl ester]",–,24,37,110,36,–,–
–,[5-(2-thienyl)tetrazol-1-yl] acetic acid 2-hydroxyethyl ester [Example 3],35,–,–,–,–,–,–
390,"O=C(Cn1nnnc1-c1ccsc1)OCCCCO [Example 16, [5-(3-thienyl)tetrazol-1-yl]acetic acid 4-hydroxybutyl ester]",–,-5,35,103,-10,–,–
–,[5-[5-(3-phenylpropyl)-2-thienyl]tetrazol-1-yl]acetic acid 2-hydroxyethyl ester [Example 5],40,–,–,–,–,–,–
360,"O=C(Cn1nnnc1-c1ccoc1)OCCO [Example 12, [5-(3-furyl)tetrazol-1-yl] acetic acid 2-hydroxyethyl ester]",–,41,70,107,68,–,–
–,O=C(O)Cn1nnnc1-c1ccsc1 [reference compound],53,–,–,–,–,–,–
–,"CCOC(=O)Cn1nnnc1-c1ccsc1 [compound 2, reference compound]",–,–,–,–,–,63,–
360,"O=C(Cn1nnnc1-c1ccsc1)OCCO [Example 1, [5-(3-thienyl)tetrazol-1-yl] acetic acid 2-hydroxyethyl ester]",–,48,73,102,50,73,–
210,"COCCOC(=O)Cn1nnnc1-c1ccsc1 [Example 19, [5-(3-thienyl)tetrazol-1-yl]acetic acid 2-methoxyethyl ester]",–,22,38,103,13,–,–
–,"CC(/C=C1\SC(=S)N(CC(=O)O)C1=O)=C\c1ccccc1 [ONO-2235, (E)-3-carboxymethyl-5-[(2E)-methyl-30 phenylpropenylidene]rhodan, reference compound]",–,–,0,40,–,–,0
3100,"O=C(Cn1nnnc1-c1ccccc1)OCCO [Example 6, (5-phenyltetrazol-1-yl) acetic acid 2-hydroxyethyl ester]",–,29,46,103,24,–,–
1300,"O=C(Cn1nnnc1-c1ccsc1)OCCCCCO [Example 18, [5-(3-thienyl)tetrazol-1-yl]acetic acid 5-hydroxypentyl ester]",–,-27,16,102,7,–,–
–,[5-[(3-methylsulfonylamino)-2-thienyl]tetrazol-1-yl] acetic acid 2-hydroxyethyl ester [Example 4],40,–,–,–,–,–,–
